The values that follow come from patent US12162888B2, “Carboxamides as ubiquitin-specific protease inhibitors” (Valo Early Discovery, Inc., priority 2018, dated 2024).

For this experiment, the target named is T1, USP28 (USP28-5(1-1077)-TEV-6*His; LifeSensors) (Homo sapiens, UniProt Q96RU2).
T1 construct: construct USP28 (USP28-5(1-1077)-TEV-6*His; LifeSensors); TEV cleavage site (C); 6xHis (C); purchased LifeSensors
T1 sequence (Q96RU2 1-1077): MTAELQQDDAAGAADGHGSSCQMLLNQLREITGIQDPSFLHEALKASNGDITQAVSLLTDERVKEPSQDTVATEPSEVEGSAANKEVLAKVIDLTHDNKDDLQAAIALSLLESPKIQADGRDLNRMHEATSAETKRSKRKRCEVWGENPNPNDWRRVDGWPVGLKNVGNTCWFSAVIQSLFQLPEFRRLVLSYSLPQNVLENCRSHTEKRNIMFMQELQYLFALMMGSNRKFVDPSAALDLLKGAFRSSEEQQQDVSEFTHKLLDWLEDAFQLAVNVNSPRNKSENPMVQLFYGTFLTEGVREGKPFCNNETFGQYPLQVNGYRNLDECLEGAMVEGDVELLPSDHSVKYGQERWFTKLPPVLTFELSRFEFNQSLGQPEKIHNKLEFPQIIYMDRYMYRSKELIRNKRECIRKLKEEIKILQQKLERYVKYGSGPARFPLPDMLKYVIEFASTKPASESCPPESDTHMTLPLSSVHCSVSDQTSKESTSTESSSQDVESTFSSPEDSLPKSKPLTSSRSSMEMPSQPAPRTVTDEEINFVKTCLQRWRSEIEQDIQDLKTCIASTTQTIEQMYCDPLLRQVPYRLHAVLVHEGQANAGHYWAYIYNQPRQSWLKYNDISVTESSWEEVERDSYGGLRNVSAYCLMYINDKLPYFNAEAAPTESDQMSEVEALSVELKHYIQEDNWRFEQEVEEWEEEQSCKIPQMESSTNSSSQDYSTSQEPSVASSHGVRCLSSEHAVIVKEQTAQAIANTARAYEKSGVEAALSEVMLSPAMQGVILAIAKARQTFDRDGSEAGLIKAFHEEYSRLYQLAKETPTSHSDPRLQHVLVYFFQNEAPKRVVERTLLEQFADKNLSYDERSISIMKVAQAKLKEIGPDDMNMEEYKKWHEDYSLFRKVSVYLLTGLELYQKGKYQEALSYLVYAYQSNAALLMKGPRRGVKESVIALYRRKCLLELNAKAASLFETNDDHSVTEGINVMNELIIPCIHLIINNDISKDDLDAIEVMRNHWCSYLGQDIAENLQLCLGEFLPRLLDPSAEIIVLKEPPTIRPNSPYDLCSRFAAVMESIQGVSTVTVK
In words: Ubiquitin-Rhodamine 110 Assay for USP28 Activity, Example A-1(b). The format is biochemical. On the procedure: Example A-1(b): Biochemical Assay: Ubiquitin-Rhodamine 110 Assay for USP28 Activity
Each assay was performed in a final volume of 20 μL in assay buffer containing 20 mM Tris-HCl (pH 8.0, (1M Tris-HCl, pH 8.0 solution; Corning 46-031-CM)), 2 mM CaCl2 (1M Calcium Chloride solution; Sigma #21114) 2 mM BME (2-Mercaptoethanol; Sigma 63689-25ML-F), 0.01% Prionex (0.22 μM filtered, Sigma #G-0411), and 0.01% Triton X-100. Stock compound solutions were stored at −20° C. as 10 mM in DMSO. Up to 1 month prior to the assay, 2 mM test compounds were pre-dispensed into assay plates (Black, low volume; Corning #3820) and frozen at −20° C. Prestamped assay plates were allowed to come to room temperature on the day of the assay. For the screen, 100 nL of 2 mM was pre-dispensed for a final screening concentration of 10 μM (DMSO(fc)=0.5%). […] Plates were incubated stacked for 90 minutes at room temperature before fluorescence was read on the Envision (Excitation at 485 nm and Emission at 535 nm; Perkin Elmer) or on the PheraSTAR (Excitation at 485 nm and Emission at 535 nm; BMG Labtech).
For follow-up studies, each assay was performed in a final volume of 15 μL in assay buffer containing 20 mM Tris-HCl (pH 8.0, (1M Tris-HCl, pH 8.0 solution; Corning 46-031-CM)), 3 mM BME (2-Mercaptoethanol; Sigma 63689-25ML-F), 0.03% BGG (0.22 μM filtered, Sigma, G7516-25G), and 0.01% Triton X-100 (Sigma, T9284-10L). Nanoliter quantities of either an 8-point or 10-point, 3-fold serial dilution in DMSO was pre-dispensed into assay plates (Perkin Elmer, ProxiPlate-384 F Plus, #) for a final test concentration of either 25 μM to 11 nM or 25 μM to 1.3 nM, respectively. Enzyme USP28, construct USP28 (USP28-5(1-1077)-TEV-6*His; LifeSensors) concentration and incubation times were optimized for the maximal signal-to-background while maintaining initial velocity conditions at a fixed substrate concentration. The final concentration of the enzyme in the assay was […]. Final substrate (Ub-Rh110; Ubiquitin-Rhodamine 110, R&D Systems #U-555) concentration was 25 nM with [Ub-Rh110]<<Km. 5 μL of 2× enzyme was added to assay plates (pre-stamped with compound) preincubated with USP28 for 30 minutes and then 5 μL of 2× Ub-Rh110 was added to assay plates. Plates were incubated stacked for 20 minutes at room temperature before 5 μL of stop solution was added (final concentration of 10 mM citric acid (Sigma, 251275-500G)). Fluorescence was read on the Envision (Excitation at 485 nm and Emission at 535 nm; Perkin Elmer) or on the PheraSTAR (Excitation at 485 nm and Emission at 535 nm; BMG Labtech).
For assay formats Example A-1(a), A-1(b), and A-2, data were reported as percent inhibition compared with control wells based on the following equation: % inh=1−((FLU−AveLow)/(AveHigh−AveLow)) where FLU=measured Fluorescence, AveLow=average Fluorescence of no enzyme control (n=16), and AveHighh=average Fluorescence of DMSO control (n=16). IC50 values were determined by curve fitting of the standard 4 parameter logistic fitting algorithm included in the Activity Base software package: IDBS XE Designer Model 205. Data is fitted using the Levenburg Marquardt algorithm.
With `Cc1ccc2c(N)c(C(=O)N[C@H]3COc4cc(N5CCNCC5)ccc4[C@H]3C)sc2n1` (single isomer, unassigned) [Example 11-15], the “USP28 A-1(b) IC50 range” value is “+ (“+”L>2 μM)”.

On to `Cc1ccc2c(N)c(C(=O)N[C@H]3COc4cc(N5CCNCC5)ccc4[C@@H]3C)sc2n1` (single isomer, unassigned) [Example 11-16], for which the “USP28 A-1(b) IC50 range” value is “+ (“+”L>2 μM)”.

Regarding `Cc1ccc2c(N)c(C(=O)N[C@H]3COc4cc(N5CCNCC5)ccc4[C@@H]3C)sc2n1` (single isomer, unassigned) [Example 11-17], the “USP28 A-1(b) IC50 range” value is on record as “+ (“+”L>2 μM)”.

Take `Cc1ccc2c(N)c(C(=O)N[C@@H]3COc4cc(N5CCNCC5)ccc4[C@@H]3C)sc2n1` (single isomer, unassigned) [Example 11-18]: the “USP28 A-1(b) IC50 range” value is given as “+ (“+”L>2 μM)”.

`Cc1cnc2c(N)c(C(=O)N[C@H]3CCc4cc(N5CCNCC5)ccc4C3)sc2n1` (single isomer, unassigned) [Example 11-19]: the “USP28 A-1(b) IC50 range” value is on record as “++ (“++”: 0.2-2 μM)”.

As for `Cc1cnc2c(N)c(C(=O)N[C@@H]3CCc4cc(N5CCNCC5)ccc4C3)sc2n1` (single isomer, unassigned) [Example 11-20], the “USP28 A-1(b) IC50 range” value was “+ (“+”L>2 μM)”.

Consider `Cc1ccc2c(N)c(C(=O)N[C@H]3CCc4cc(N5CCNCC5)ccc4C3)sc2n1` (single isomer, unassigned) [Example 11-21], for which the “USP28 A-1(b) IC50 range” value was “++ (“++”: 0.2-2 μM)”.

Take `Cc1ccc2c(N)c(C(=O)N[C@@H]3CCc4cc(N5CCNCC5)ccc4C3)sc2n1` (single isomer, unassigned) [Example 11-22]: the “USP28 A-1(b) IC50 range” value was “++ (“++”: 0.2-2 μM)”.

`CN[C@H]1CCN(c2ccc3c(c2)CC[C@H](NC(=O)c2sc4nc(C)cnc4c2N)C3)C1` (single isomer, unassigned) [Example 11-25]: the “USP28 A-1(b) IC50 range” value is listed as “++ (“++”: 0.2-2 μM)”.

On to `CN[C@H]1CCN(c2ccc3c(c2)CC[C@@H](NC(=O)c2sc4nc(C)cnc4c2N)C3)C1` (single isomer, unassigned) [Example 11-26], for which the “USP28 A-1(b) IC50 range” value is “+ (“+”L>2 μM)”.

With `CN[C@@H]1CCN(c2ccc3c(c2)CC[C@H](NC(=O)c2sc4nc(C)cnc4c2N)C3)C1` (single isomer, unassigned) [Example 11-27], the “USP28 A-1(b) IC50 range” value was “++ (“++”: 0.2-2 μM)”.

Consider `CN[C@@H]1CCN(c2ccc3c(c2)CC[C@@H](NC(=O)c2sc4nc(C)cnc4c2N)C3)C1` (single isomer, unassigned) [Example 11-28], for which the “USP28 A-1(b) IC50 range” value is on record as “+ (“+”L>2 μM)”.

For the compound `Cc1cnc2c(N)c(C(=O)N[C@H]3CCc4cc(N5C[C@@H]6C[C@H]5CN6)ccc4C3)sc2n1` (single isomer, unassigned) [Example 11-29], the “USP28 A-1(b) IC50 range” value was “++ (“++”: 0.2-2 μM)”.

As to `Cc1cnc2c(N)c(C(=O)N[C@@H]3CCc4cc(N5C[C@@H]6C[C@H]5CN6)ccc4C3)sc2n1` (single isomer, unassigned) [Example 11-30], the “USP28 A-1(b) IC50 range” value was “++ (“++”: 0.2-2 μM)”.

For `Cc1cnc2c(N)c(C(=O)N[C@H]3CCc4cc(N5C[C@H]6C[C@@H]5CN6)ccc4C3)sc2n1` (single isomer, unassigned) [Example 11-31], the “USP28 A-1(b) IC50 range” value is on record as “++ (“++”: 0.2-2 μM)”.

In the case of `Cc1cnc2c(N)c(C(=O)N[C@@H]3CCc4cc(N5C[C@H]6C[C@@H]5CN6)ccc4C3)sc2n1` (single isomer, unassigned) [Example 11-32], the “USP28 A-1(b) IC50 range” value is listed as “++ (“++”: 0.2-2 μM)”.

Turning to `Cc1nc2sc(C(=O)N[C@H]3CCc4cc(N5CCNCC5)ccc4C3)c(N)c2s1` (single isomer, unassigned) [Example 11-33], the “USP28 A-1(b) IC50 range” value is “+ (“+”L>2 μM)”.

Take `Cc1nc2sc(C(=O)N[C@@H]3CCc4cc(N5CCNCC5)ccc4C3)c(N)c2s1` (single isomer, unassigned) [Example 11-34]: the “USP28 A-1(b) IC50 range” value is “++ (“++”: 0.2-2 μM)”.

On to `Cc1cnc2c(N)c(C(=O)N[C@@H]3CCc4cc(N5CCNCC5)cc(F)c4C3)sc2n1` (single isomer, unassigned) [Example 11-37], for which the “USP28 A-1(b) IC50 range” value is “+ (“+”L>2 μM)”.

For the compound `Cc1cnc2c(N)c(C(=O)N[C@H]3CCc4cc(N5CCNCC5)cc(F)c4C3)sc2n1` (single isomer, unassigned) [Example 11-38], the “USP28 A-1(b) IC50 range” value is on record as “+++ (“+++”: 0.05-0.2 μM)”.

For the compound `Cc1ccc2c(N)c(C(=O)N[C@H]3CCc4cc(N5CC6CNCC(C5)O6)cc(F)c4C3)sc2n1` (single isomer, unassigned) [Example 11-39], the “USP28 A-1(b) IC50 range” value is listed as “++ (“++”: 0.2-2 μM)”.

For `Cc1ccc2c(N)c(C(=O)N[C@@H]3CCc4cc(N5CC6CNCC(C5)O6)cc(F)c4C3)sc2n1` (single isomer, unassigned) [Example 11-40], the “USP28 A-1(b) IC50 range” value was “++++ (“++++”: 0.001-0.05 μM)”.

As to `Cc1ccc2c(N)c(C(=O)N[C@@H]3CCc4c(C#N)c(N5CCNCC5)cc(F)c4C3)sc2n1` (single isomer, unassigned) [Example 14-9], the “USP28 A-1(b) IC50 range” value was “+ (“+”L>2 μM)”.

Turning to `Cc1ccc2c(N)c(C(=O)N[C@H]3CCc4c(C#N)c(N5CCNCC5)cc(F)c4C3)sc2n1` (single isomer, unassigned) [Example 14-10], the “USP28 A-1(b) IC50 range” value is listed as “+++ (“+++”: 0.05-0.2 μM)”.

Regarding `Cc1cnc2c(N)c(C(=O)N[C@@H]3CCc4c(ccc(N5CCNCC5)c4F)C3)sc2n1` (single isomer, unassigned) [Example 21-9], the “USP28 A-1(b) IC50 range” value is “++ (“++”: 0.2-2 μM)”.

On to `Cc1cnc2c(N)c(C(=O)N[C@H]3CCc4c(ccc(N5CCNCC5)c4F)C3)sc2n1` (single isomer, unassigned) [Example 21-10], for which the “USP28 A-1(b) IC50 range” value is given as “+ (“+”L>2 μM)”.

As for `Cc1cnc2c(N)c(C(=O)N[C@@H]3CCc4cc(N5CCNCC5)c(F)cc4C3)sc2n1` (single isomer, unassigned) [Example 21-11], the “USP28 A-1(b) IC50 range” value is given as “++ (“++”: 0.2-2 μM)”.

As to `Cc1cnc2c(N)c(C(=O)N[C@H]3CCc4cc(N5CCNCC5)c(F)cc4C3)sc2n1` (single isomer, unassigned) [Example 21-12], the “USP28 A-1(b) IC50 range” value is reported as “++++ (“++++”: 0.001-0.05 μM)”.
